From patent EP4737457A1, “POLYSUBSTITUTED MACROCYCLIC COMPOUND, AND PREPARATION METHOD THEREFOR AND USE THEREOF” (Shenzhen Salubris Pharmaceuticals Co., Ltd., priority 2023, dated 2025)

Assays:
[1] = test system: Pooled human plasma; experiment: In vitro anticoagulant effect in human plasma (aPTT, EC1.5x); format: biochemical; details: 37 °C for 10 minutes
Protocol: aPTT (Lot 220106600), Calcium Chloride (Lot 210305600), Needle Rinse Solution (Lot 211101300): produced by Shenzhen Mindray Bio-Medical Electronics Co., Ltd. Pooled human plasma: collected from healthy individuals using disposable venous blood collection tubes (Liuyang Sanli Medical Technology Development Co., Ltd., Lot 211108, sodium citrate 9:1). Blood was collected, centrifuged at room temperature at 3000 rpm for 10 minutes, and the supernatant was collected and stored for use (Lot 20220606).
Test compounds dissolved in 100% DMSO at 10 mM were diluted with 100% DMSO to concentrations of 0.29 µM, 0.59 µM, 1.17 µM, 2.34 µM, 4.69 µM, 9.38 µM, 18.75 µM, and 37.50 µM. Then 99 µL of pooled human plasma was added to each 1.5 mL centrifuge tube, followed by the addition of 1 µL of compound at different concentrations; 1 µL of DMSO was added to the blank control. The tubes were mixed by repeated manual inversion, centrifuged briefly using a mini centrifuge to collect the samples, and then incubated in a thermostatic water bath at 37 °C for 10 minutes with mixing. The aPTT was measured using a fully automated coagulation analyzer according to the preset program.
Curve fitting was performed using GraphPad Prism software to calculate EC1.5x.

[2] = target: Human Factor XIa (Homo sapiens, UniProt P03951); experiment: Inhibition of human coagulation Factor XIa by absorbance method (S-2366 substrate, 405 nm); format: biochemical; details: incubated at 37 °C for 20 minutes; substrate 800 µM; read-out: Recombinant Enzyme FXIa IC50
Human Factor XIa, sequence (P03951 388-625 limits assumed): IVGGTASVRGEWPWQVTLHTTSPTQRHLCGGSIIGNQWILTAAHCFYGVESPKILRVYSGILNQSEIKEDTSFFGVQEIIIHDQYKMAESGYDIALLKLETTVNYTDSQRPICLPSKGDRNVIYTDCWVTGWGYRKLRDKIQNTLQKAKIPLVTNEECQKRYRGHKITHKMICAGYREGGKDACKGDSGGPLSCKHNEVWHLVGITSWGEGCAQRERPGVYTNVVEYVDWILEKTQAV
Human Factor XIa, sequence (P03951 19-387 partner limits assumed): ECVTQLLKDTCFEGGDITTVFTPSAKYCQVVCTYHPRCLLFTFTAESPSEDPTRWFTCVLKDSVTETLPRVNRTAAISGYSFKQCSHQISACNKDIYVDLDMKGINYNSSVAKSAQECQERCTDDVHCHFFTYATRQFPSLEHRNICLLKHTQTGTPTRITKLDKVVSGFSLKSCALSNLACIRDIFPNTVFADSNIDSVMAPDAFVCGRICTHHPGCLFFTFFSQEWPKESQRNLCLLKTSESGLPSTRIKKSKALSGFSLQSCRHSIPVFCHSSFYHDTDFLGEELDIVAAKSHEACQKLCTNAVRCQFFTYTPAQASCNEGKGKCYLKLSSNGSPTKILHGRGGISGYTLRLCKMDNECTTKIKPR
Protocol: • Enzyme: Human Factor XIa (ENZYME […], Cat. No. HFXIa 1111a) • Substrate: S-2366™ (CHROMOGENIX, Cat. No. 82109039) • Buffer: 145 mM NaCl, 5 mM KCl, 1 mg/mL PEG 8000, 30 mM HEPES, pH 7.4.
Test compounds dissolved in 100% DMSO at 10 mM were diluted with 100% DMSO to concentrations of 1000 µM, 200 µM, 40 µM, 8 µM, 1.6 µM, 0.32 µM, 0.064 µM, 0.0128 µM, 0.00256 µM, and […]. Then 98 µL of FXIa enzyme solution (77.7 ng/mL) was added to each well of a 96-well plate, with 98 µL of buffer added to blank wells instead. Then, 2 µL of compound at different concentrations was added; DMSO was used instead for blank and control wells. The plate was mixed using a plate shaker and incubated at 37 °C for 20 minutes.
Finally, 100 µL of substrate (800 µM) was added to each well, and the absorbance was measured at 405 nm.
Curve fitting was performed using GraphPad Prism software to calculate the IC50 values.

[3] = Pharmacokinetic experiment in rats (iv and PO); details: male, Sprague-Dawley (SD), rat, plasma, 5 mg/kg
Source text: Polyethylene glycol 400 (PEG-400, Lot GORKREUT, Shaen Chemical Technology (Shanghai) Co., Ltd.), DMSO (Lot 20200319, Guangdong Guanghua Sci-Tech Co., Ltd.), normal saline (Lot C20052604, Jiangxi Kelun Pharmaceutical Co., Ltd.). LC-MS instrument (Thermo Fisher Ultimate 3000 UPLC, TSQ QUANTUM ULTRA triple quadrupole mass spectrometer, AB SCIEX 5500 QTARP).
SD rats: Male, 180-250 g, purchased from Guangdong Vital River Laboratory Animal Technology Co., Ltd.
The test compound powder was accurately weighed, completely dissolved in DMSO, then PEG-400 was added. The mixture was vortexed and sonicated to mix, followed by the addition of normal saline. The mixture was vortexed and sonicated again to achieve a final concentration of 0.5 mg/mL (DMSO:PEG-400:NS = 5:60:35, V/V/V). The dosing volume was 10 mL/kg for oral gavage and 0.5 mL/kg for intravenous administration.
After intravenous or oral administration to rats, 200 µL of venous blood was collected at 5 min (not collected for oral group), 15 min, 30 min, 1 h, 2 h, 5 h, 7 h, and 24 h into heparinized EP tubes. The blood was centrifuged at 12,000 rpm for 2 minutes, and the plasma was collected and stored at -80 °C until analysis.
A precise amount of the test compound was weighed and dissolved in DMSO to 1 mg/mL as a stock solution. An appropriate volume of the compound stock solution was accurately pipetted and diluted with acetonitrile to prepare standard series solutions. 20 µL of each standard series solution was accurately pipetted and added to 180 µL of blank plasma, vortexed to mix, to prepare plasma samples equivalent to plasma concentrations of 1 ng/mL, 3 ng/mL, 10 ng/mL, 30 ng/mL, 100 ng/mL, 300 ng/mL, 1000 ng/mL, 3000 ng/mL, and 5000 ng/mL. Each concentration was analyzed in duplicate to establish the standard curve. 20 µL of plasma sample was taken, and 200 µL of an internal standard (propranolol, 5 ng/mL) in acetonitrile solution was added. The mixture was vortexed and centrifuged at 4000 rpm for 5 minutes. The supernatant was taken for LC-MS analysis. The LC-MS detection conditions were as follows: Chromatographic Column: Waters ACQUITY™ PREMIER HSS T3, 50*2.1 mm, 1.8 µm.
Mobile phase A: water (0.1% formic acid), mobile phase B: acetonitrile, flow rate: 0.5 mL/min, gradient elution: see Table 2 below.
After determining the plasma drug concentration by LC-MS, the pharmacokinetic parameters following administration to rats were calculated using the non-compartmental model in WinNonlin 6.1 software.

Row | SMILES | IC50 [2] [nM] | bioavailability [3] [%] | Human Plasma APTT 1.5x [1] [µM]
1 | [2H]C([2H])([2H])n1ncc2c1-c1cc(F)c(F)c(c1)[C@@H](n1ncc(-c3cc(Cl)ccc3-n3cc(C(F)(F)F)nn3)cc1=O)CCC[C@@H](C)C(=O)N2 [Compound 5, (3S,7R)-3-(4-(5-chloro-2-(4-(trifluoromethyl)-1H-1,2,3-triazol-1-yl)phenyl) -6-oxopyridazin-1(6H)-yl)-2^4,2^5-difluoro-7-methyl-1^1-(methyl-d3)-1^1H-9-aza-1(5,4)-pyrazola-2(1,3)-benzenacyclononaphan-8-one] | 0.89 |  | 0.83
2 | [2H]C([2H])([2H])n1ncc2c1-c1cc(F)c(F)c(c1)[C@@H](n1ccc(-c3cc(Cl)ccc3-n3cc(C(F)F)nn3)cc1=O)CCC[C@@H](C)C(=O)N2 [Compound 10, (3S,7R)-3-(4-(5-chloro-2-(4-(difluoromethyl)-1H-1,2,3-triazol-1-yl)phenyl)-2-oxopyridin-1(2H)-yl)-2^4,2^5-difluoro-7-methyl-1^1-(methyl-d3)-1^1H-9-aza-1(5,4)-pyrazola-2(1,3)-benzenacyclononaphan-8-one] | 0.77 |  | 0.20
3 | [2H]C([2H])([2H])n1ncc2c1-c1cc(F)c(F)c(c1)[C@@H](n1ncc(-c3c(-n4cc(C(F)(F)F)nn4)ccc(Cl)c3F)c(Cl)c1=O)CCC[C@@H](C)C(=O)N2 [Compound 6, (3S,7R)-3-(5-chloro-4-(3-chloro-2-fluoro-6-(4-(trifluoromethyl)-1H-1,2,3-triazol-1-yl)phenyl)-6-oxopyridazin-1(6H)-yl)-2^42^5-difluoro-7-methyl-1^1-(methyl-d3)-1^1H-9-aza-1(5,4)-pyrazola-2(1,3)-benzenacyclononaphan-8-one] | 1.06 | 14.1 | 0.43
4 | C[C@@H]1CCC[C@H](n2cnc(-c3c(-n4cc(Cl)nn4)ccc(Cl)c3F)cc2=O)c2cc(cc(F)c2F)-c2c(cnn2C(F)F)NC1=O [Compound 13, (3S,7R)-3-(4-(3-chloro-6-(4-chloro-1H-1,2,3-triazol-1-yl)-2-fluorophenyl)-6-oxopyrimidin-1(6H)-yl)-2^4,2^5-difluoro-7-methyl-1^1-difluoromethyl-1^1H-9-aza-1(5,4)-pyraz ola-2(1,3)-benzenacyclononaphan-8-one] | 0.4 |  | 
5 | [2H]C([2H])([2H])n1ncc2c1-c1cc(F)c(F)c(c1)[C@@H](n1cnc(-c3cc(Cl)ccc3-n3cc(C(F)(F)F)nn3)cc1=O)CCC[C@@H](C)C(=O)N2 [Compound 2, (3R,7R)-3-(4-(5-chloro-2-(4-(trifluoromethyl)-1H-1,2,3-triazol-1-yl)phenyl) -6-oxopyrimidin-1(6H)-yl)-2^42^5-difluoro-7-methyl-1^1-(methyl-d3)-1^1H-9-aza-1(5,4)-pyrazola-2(1,3)-benzenacyclononaphan-8-one] | 0.36 |  | 0.24
6 | C[C@@H]1CCC[C@H](n2cnc(-c3cc(Cl)ccc3-n3cc(Cl)nn3)cc2=O)c2cc(cc(F)c2F)-c2c(cnn2C(F)F)NC1=O [Compound 14, (3S,7R)-3-(4-(5-chloro-2-(4-chloro-1H-1,2,3-triazol-1-yl)phenyl)-6-oxopyrimidin-1(6H)-yl)-2^4,2^5-difluoro-7-methyl-1^1-difluoromethyl-1^1H-9-aza-1(5,4)-pyrazol a-2(1,3)-benzenacyclononaphan-8-one] | 0.38 |  | 
7 | [2H]C([2H])([2H])n1ncc2c1-c1cc(F)c(F)c(c1)[C@@H](n1cnc(-c3c(-n4cc(Cl)nn4)ccc(Cl)c3F)cc1=O)CCC[C@@H](C)C(=O)N2 [Compound 3, (3S,7R)-3-(4-(3-chloro-6-(4-chloro-1H-1,2,3-triazol-1-yl)-2-fluorophenyl)-6-oxopyrimidin-1(6H)-yl)-2^4,2^5-difluoro-7-methyl-1^1-(methyl-d3)-1^1H-9-aza-1(5,4)-pyrazola-2(1,3)-benzenacyclononaphan-8-one] | 0.61 | 15.7 | 0.24

Now those with a lower IC50 [2], led by results:

Row | IC50 [2] [nM] | bioavailability [3] [%] | SMILES | Human Plasma APTT 1.5x [1] [µM]
8 | 0.34 |  | [2H]C([2H])([2H])n1ncc2c1-c1cc(F)c(F)c(c1)[C@@H](n1ccc(-c3cc(Cl)ccc3-n3cc(C(F)(F)F)nn3)cc1=O)CCC[C@@H](C)C(=O)N2 [Compound 7, (3S,7R)-3-(4-(5-chloro-2-(4-(trifluoromethyl)-1H-1,2,3-triazol-1-yl)phenyl) -2-oxopyridin-1(2H)-yl)-2^4,2^5-difluoro-7-methyl-1^1-(methyl-d3)-1^1H-9-aza-1(5,4)-pyrazola-2 (1,3)-benzenacyclononaphan-8-one] | 0.22
9 | 0.3 |  | [2H]C([2H])([2H])n1ncc2c1-c1cc(F)c(F)c(c1)[C@@H](n1ccc(-c3cc(Cl)ccc3-n3cc(C(F)(F)F)nn3)c(F)c1=O)CCC[C@@H](C)C(=O)N2 [Compound 9, (3S,7R)-3-(4-(5-chloro-2-(4-(trifluoromethyl)-1H-1,2,3-triazol-1-yl)phenyl)-3-fluoro-2-oxopyridin-1(2H)-yl)-2^4,2^5-difluoro-7-methyl-1^1-(methyl-d3)-1^1H-9-aza-1 (5,4)-pyrazola-2(1,3)-benzenacyclononaphan-8-one] | 
10 | 0.29 | 21.6 | C[C@@H]1CCC[C@H](n2cnc(-c3c(-n4cc(C(F)(F)F)nn4)ccc(Cl)c3F)cc2=O)c2cc(cc(F)c2F)-c2c(cnn2C(F)F)NC1=O [Compound 11, (3S,7R)-3-(4-(3-chloro-2-fluoro-6-(4-(trifluoromethyl)-1H-1,2,3-triazol-1-yl)phenyl)-6-oxopyrimidin-1(6H)-yl)-2^4,2^5-difluoro-7-methyl-1^1-difluoromethyl-1^1H-9-aza-1 (5,4)-pyrazola-2(1,3)-benzenacyclononaphan-8-one] | 0.23
11 | 0.15 |  | [2H]C([2H])([2H])n1ncc2c1-c1cc(F)c(F)c(c1)[C@@H](n1ccc(-c3cc(Cl)ccc3-n3cc(C(F)(F)F)nn3)c(Cl)c1=O)CCC[C@@H](C)C(=O)N2 [Compound 8, (3S,7R)-3-(4-(5-chloro-2-(4-(trifluoromethyl)-1H-1,2,3-triazol-1-yl)phenyl) -3-chloro-2-oxopyridin-1(2H)-yl)-2^4,2^5-difluoro-7-methyl-1^1-(methyl-d3)-1^1H-9-aza-1(5,4)-p yrazola-2(1,3)-benzenacyclononaphan-8-one] | 
